Test results: ChEMBL document CHEMBL1141593, “Acylpyrogallols as inhibitors of antiapoptotic Bcl-2 proteins” (J Med Chem, 2008)

Legend:
[1] = system: MDA-MB-231; assay: Induction of apoptosis in human MDA-MB-231 2LMP cells assessed as cell death at 3 uM after 4 days by trypan blue exclusion assay; settings: MDA-MB-231, 96 h
[2] = system: MDA-MB-231; assay: Induction of apoptosis in human MDA-MB-231 2LMP cells assessed as cell death at 0.3 uM after 4 days by trypan blue exclusion assay; settings: MDA-MB-231, 96 h

Compound O=C(c1ccc(Oc2ccccc2)cc1)c1cc(C(=O)c2nc3ccccc3s2)c(O)c(O)c1O has a cell death at 3 µM [1] of 86% and a cell death at 0.3 µM [2] of 31%.
